Measurements as given in ChEMBL document CHEMBL1201862, “PubChem BioAssay data set” (2004).
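Tested at 5 concentrations; 48 h exposure; 96-well plates; endpoints linearly interpolated, else capped at highest concentration. At the GI50, growth is halved.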 Calls of active or inactive are those of the source. No stated cut-off is given here; in the data, active = GI50 up to about 1.1 µM and inactive = higher.

Legend:
Assay in all cases: NCI-60 cell line screen, 48 h
SK-MEL-2 = test system: SK-MEL-2
DU-145 = test system: DU-145
SK-MEL-28 = test system: SK-MEL-28
OVCAR-5 = test system: OVCAR-5
OVCAR-8 = test system: OVCAR-8
SR = test system: SR
KM12 = test system: KM12
HCC 2998 = test system: HCC 2998
MDA-MB-231 = test system: MDA-MB-231
Hs-578T = test system: Hs-578T
MCF7 = test system: MCF7
SNB-19 = test system: SNB-19
NCI-H226 = test system: NCI-H226
SK-MEL-5 = test system: SK-MEL-5
A498 = test system: A498
RXF 393 = test system: RXF 393
A549 = test system: A549
TK-10 = test system: TK-10
COLO 205 = test system: COLO 205
LOX IMVI = test system: LOX IMVI

Measured: GI50

CCOC(=O)c1cn(CC)c2cc3c(cc2c1=O)CCS3(=O)=O
inactive: SK-MEL-2 19.1 µM | DU-145 > 100 µM | SK-MEL-28 > 100 µM | OVCAR-5 > 100 µM | OVCAR-8 > 100 µM | SR > 100 µM | KM12 > 100 µM | HCC 2998 > 100 µM | MDA-MB-231 > 100 µM | Hs-578T > 100 µM | MCF7 > 100 µM | SNB-19 > 100 µM | NCI-H226 > 100 µM | SK-MEL-5 > 100 µM | A498 > 100 µM | RXF 393 > 100 µM | A549 > 100 µM | TK-10 > 100 µM

C[C@H](NC1=C(Cl)C(=O)c2c(O)ccc(O)c2C1=O)C(=O)Nc1ccc([N+](=O)[O-])cc1
inactive: SK-MEL-2 3.52 µM | DU-145 1.82 µM | SK-MEL-28 2.03 µM | OVCAR-5 1.77 µM | OVCAR-8 2.37 µM | SR 2.47 µM | KM12 1.82 µM | HCC 2998 3.33 µM | MDA-MB-231 1.91 µM | Hs-578T 4.57 µM | MCF7 1.75 µM | SNB-19 3.06 µM | COLO 205 1.59 µM | NCI-H226 1.91 µM | SK-MEL-5 1.76 µM | A498 2.39 µM | RXF 393 1.56 µM | A549 1.71 µM | TK-10 1.95 µM

O=C(O)c1ccccc1-c1ccccc1C(=O)c1ccccc1
inactive: SK-MEL-2 > 100 µM | DU-145 > 100 µM | SK-MEL-28 > 100 µM | OVCAR-5 > 100 µM | OVCAR-8 > 100 µM | SR > 100 µM | KM12 > 100 µM | LOX IMVI > 100 µM | MDA-MB-231 > 100 µM | Hs-578T > 100 µM | MCF7 > 100 µM | SNB-19 > 100 µM | COLO 205 > 100 µM | NCI-H226 > 100 µM | SK-MEL-5 > 100 µM | A498 > 100 µM | RXF 393 > 100 µM | A549 > 100 µM | TK-10 > 100 µM

CC(=O)NC1C(OC2C(CO)OC(OCC3OC(n4ccc(N)nc4=O)C(O)C3O)C(NC(C)=O)C2O)OC(CO)C(O)C1O (stereo not given)
inactive: SK-MEL-2 > 100 µM | DU-145 > 100 µM | SK-MEL-28 > 100 µM | OVCAR-5 > 100 µM | OVCAR-8 > 91.2 µM | SR > 100 µM | KM12 > 100 µM | LOX IMVI > 100 µM | MDA-MB-231 > 100 µM | Hs-578T > 100 µM | MCF7 > 94.6 µM | SNB-19 > 100 µM | COLO 205 > 100 µM | NCI-H226 > 100 µM | SK-MEL-5 > 100 µM | A498 > 100 µM | RXF 393 > 100 µM | A549 > 100 µM | TK-10 > 100 µM
